Where two headings read alike, the source gives them in different places.
What was measured:
5-HT2A receptors [1] = target: T1, 5-HT2A receptors (Homo sapiens, UniProt P28223); assay: Radioligand competition binding assay at human 5-HT2A receptors; design: expressed in transfected cells; host or cells: CHO-FA4-5-HT2A cells (membranes)
5-HT2B receptors [2] = target: T2, 5-HT2B receptors (Homo sapiens, UniProt P41595); assay: Functional assay of IPs accumulation at human 5-HT2B receptors; type: cell-based
T2 sequence (P41595 whole entry): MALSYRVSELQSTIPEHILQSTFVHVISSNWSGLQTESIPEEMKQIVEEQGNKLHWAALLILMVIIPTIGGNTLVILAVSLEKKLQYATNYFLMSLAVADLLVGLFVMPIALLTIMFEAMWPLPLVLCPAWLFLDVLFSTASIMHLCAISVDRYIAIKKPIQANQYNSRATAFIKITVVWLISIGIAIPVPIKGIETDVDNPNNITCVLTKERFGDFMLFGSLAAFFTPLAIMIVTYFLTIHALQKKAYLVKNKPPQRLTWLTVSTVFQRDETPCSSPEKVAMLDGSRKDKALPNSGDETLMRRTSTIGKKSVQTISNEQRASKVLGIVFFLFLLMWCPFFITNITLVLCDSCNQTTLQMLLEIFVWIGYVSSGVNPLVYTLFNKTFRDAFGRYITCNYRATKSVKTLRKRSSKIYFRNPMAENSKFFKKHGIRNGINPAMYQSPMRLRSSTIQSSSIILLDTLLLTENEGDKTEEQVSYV
Method: After 24 h, growth medium was replaced by serum-free medium containing 10 μCi/mL [^3H]myo-inositol (20.3 Ci/mmol, Perkin-Elmer) for 24 h. […] After the incubation time, assay buffer was discarded and 200 μL of 100 mM formic acid was added to the cells for 30 min at 4 °C and 20 μL of the lysate were transferred to a flexiplate plate (Perkin-Elmer, Waltham, MA, USA) together with 80 μL of a solution of RNA Binding YSi SPA Beads (Perkin-Elmer, Waltham, MA, USA) to measure accumulation of [^3H]IPs (IP1,IP2, and IP3, collectively referred to as IPs).

human 5-HT2C receptors = target: T3, human 5-HT2C receptors (Homo sapiens, UniProt P28335); assay: Radioligand competition binding assay at human 5-HT2C receptors
T3 construct: expressed in transfected cells; host or cells: HeLa-5-HT2C cells (membranes)
T3 sequence (P28335 33-458): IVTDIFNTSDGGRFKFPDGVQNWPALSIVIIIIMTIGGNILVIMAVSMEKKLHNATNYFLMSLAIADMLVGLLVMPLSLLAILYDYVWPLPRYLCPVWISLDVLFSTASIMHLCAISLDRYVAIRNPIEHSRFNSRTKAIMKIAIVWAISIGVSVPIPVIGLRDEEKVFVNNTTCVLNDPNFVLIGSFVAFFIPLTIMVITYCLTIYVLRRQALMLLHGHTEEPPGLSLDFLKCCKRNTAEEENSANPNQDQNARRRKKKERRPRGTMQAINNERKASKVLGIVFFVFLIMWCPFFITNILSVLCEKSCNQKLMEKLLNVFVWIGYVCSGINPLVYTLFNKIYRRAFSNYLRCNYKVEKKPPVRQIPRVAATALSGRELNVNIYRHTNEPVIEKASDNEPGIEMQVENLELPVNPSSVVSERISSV

[3] = Absorption and emission spectra (photophysical properties); type: physicochemical; conditions: 10 μM solutions
Method: The absorption and emission spectra of the fluorescent 5-HT2 ligands (10 and 12) were determined on 10 μM solutions. The most relevant fluorescent properties are collected in Fig. 5. All of the synthesized derivatives emitted fluorescence in the visible region of the spectrum, with selected fluorescent tags (Fig. 4) providing distinctive properties and excitation wavelengths. The excitation wavelengths varied from 305 to 555 nm, whereas those for emission varied from 398 to 580 nm.

5-HT2B receptors [4] = target: T2, 5-HT2B receptors; assay: Radioligand competition binding assay at human 5-HT2B receptors
5-HT2A receptors [5] = target: T1, 5-HT2A receptors; assay: Labelling of 5-HT2A receptors in live CHO-FA4-5-HT2A cells (fluorescence microscopy, plate reader); type: cell-based; design: expressed in transfected cells; host or cells: CHO-FA4-5-HT2A cells (live)
Method: The specificity and sensitivity of the 12i probe towards 5-HT2B receptors over other 5-HT2 receptor subtypes was evaluated by performing similar labelling experiments in CHO cells stably expressing 5-HT2A receptors (CHO-FA4-5-HT2A). […] However, even in these conditions (20 μM concentration of 12i) the signal window over background achieved for 5-HT2A labelling was considerably smaller than that detected in the case of 5-HT2B labelling at a concentration of 12i more than 6 times lower (3 μM) (Fig. 9 and Supplementary Figure S3).
(§1) For cell labelling studies, cells were plated onto 96-well plates (Cell Carrier; Perkin-Elmer, Waltham, MA, USA) pre-treated with poly-D-lysine hydrobromide 0.1 mg/mL (Sigma Aldrich, Spain) at a density of 10000 cells/well and cultured for 24 h. […] Fluorescence images were acquired using an Operetta high content imaging instrument (Perkin-Elmer, Waltham, MA, USA) at 20x and 40x magnification, at excitation wavelengths of 520–550 nm and emission wavelengths of 560–630 nm (standard 5-TAMRA filter set) for compound 12i, and excitation wavelengths of 360–400 nm and emission wavelengths of 410–480 nm for Hoechst 33342 (standard Hoechst 33342 filter set).
The fluorescence intensity of the cells labelled with compound 12i was quantified by image analysis of the acquired images using Harmony v3.5 software (Perkin-Elmer). […]

5-HT2B receptors [6] = target: T2, 5-HT2B receptors; type: cell-based; conditions: 3 μM, 10 min at 37 °C; image analysis and plate reader; p < 0.001
Method: Having finished the preliminary photophysical and pharmacological characterization of the fluorescent derivatives 12a–i, their potential to specifically label 5-HT2B receptors in live cells was evaluated. Chinese hamster ovary K1 (CHO-K1) cells and CHO-K1 cells stably expressing the human serotonin 5-HT2B receptor (CHO-K1-5-HT2B), growing in 96-well plates, were incubated with at least three different concentrations of each compound for varying times and, after compound removal and washing of the cells, plates were subjected to fluorescence microscopy using a high content imaging instrument and the appropriate excitation and emission filter set for each compound.
as §1, with “set). […]” for “set).”

[7] = system: tumor necrosis factor alpha (TNF-α); conditions: primary aortic smooth muscle cells and animal models; cited from earlier work
[8] = [3H]Ketanserin, membranes from CHO-FA4-5-HT2A cells, read-out: Binding at 5-HT2 receptors Ki 5-HT2A
[9] = [3H]Mesulergine, membranes from HeLa-5-HT2C cells, read-out: Binding at 5-HT2 receptors Ki 5-HT2C

T1 sequence (P28223 whole entry): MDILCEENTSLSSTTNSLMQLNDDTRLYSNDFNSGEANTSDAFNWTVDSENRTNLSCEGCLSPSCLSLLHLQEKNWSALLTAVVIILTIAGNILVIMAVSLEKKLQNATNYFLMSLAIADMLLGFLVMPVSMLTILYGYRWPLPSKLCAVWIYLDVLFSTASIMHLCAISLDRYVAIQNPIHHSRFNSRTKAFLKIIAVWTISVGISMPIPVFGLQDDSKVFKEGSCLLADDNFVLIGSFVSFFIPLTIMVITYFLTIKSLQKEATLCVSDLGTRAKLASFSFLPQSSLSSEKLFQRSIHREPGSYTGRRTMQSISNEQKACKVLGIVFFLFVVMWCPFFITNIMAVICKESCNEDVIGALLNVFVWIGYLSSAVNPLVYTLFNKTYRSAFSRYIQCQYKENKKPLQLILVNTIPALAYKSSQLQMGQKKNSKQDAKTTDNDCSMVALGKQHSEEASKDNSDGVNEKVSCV

Row | Compound | melting point | Ki (5-HT2A receptors [1]) | EC50 (5-HT2B receptors [2]) | Ki (human 5-HT2C receptors) | Δλ (Stokes shift) [3] | εmax [3] | λmax Abs [3] | λmax Em [3] | Ki (5-HT2B receptors [4]) | selectivity for the 5-HT2B receptor subtype (5-HT2B receptors [4]; over 5-HT2A and 5-HT2C, from binding Ki) | Ki (5-HT2A receptors [1]; [8]) | Ki (human 5-HT2C receptors; [9]) | specific labelling of 5-HT2A receptors in CHO-FA4-5-HT2A cells (5-HT2A receptors [5]; 3 μM) | specific labelling of 5-HT2A receptors in CHO-FA4-5-HT2A cells (5-HT2A receptors [5]; 20 μM) | fluorescence intensity of CHO-K1-5-HT2B cell wells versus control CHO-K1 cell wells (5-HT2B receptors [6]) | potency of blockade of the pro-inflammatory effects of TNF-α [7]
1 | COc1cc(CC(C)N)c(OCCCC(=O)NCCCNc2ccc([N+](=O)[O-])c3nonc23)cc1I (stereo not drawn) [12b, 4-(2-(2-aminopropyl)-5-iodo-4-methoxyphenoxy)-N-(3-((7-nitroben-zo[c][1,2,5]oxadiazol-4-yl)amino)propyl)butanamide] | 158 to 160 °C | 3310 nM | 3.27 nM | 1810 nM | 69 nm | 23881 M⁻¹ cm⁻¹ | 461 nm | 530 nm | 91 nM | ≥ 20 fold |  |  |  |  |  | 
2 | COC(=O)c1c(C(=O)OCCCNC(=O)CCCOc2cc(I)c(OC)cc2CC(C)N)c2cc3ccccc3cc2c2cc3ccccc3cc12 (stereo not drawn) [12g, 6-(3-(4-(2-(2-aminopropyl)-5-iodo-4-methoxyphenoxy)butanamido)pro-pyl) 7-methyl pentaphene-6,7-dicarboxylate] | 150 to 152 °C |  |  |  | 123 nm | 9977 M⁻¹ cm⁻¹ | 375 nm | 498 nm | 283 nM |  | 3700 nM | 2280 nM |  |  |  | 
3 | CCCCCCC(CCCCCC)N1C(=O)c2ccc3c4ccc5c6c(ccc(c7ccc(c2c37)C1=O)c64)C(=O)N(CCCNC(=O)CCCOc1cc(I)c(OC)cc1CC(C)N)C5=O (stereo not drawn) [12h, 4-(2-(2-aminopropyl)-5-iodo-4-methoxyphenoxy)-N-(3-(1,3,8,10-tetraoxo-9-(tridecan-7-yl)-3,8,9,10-tetrahydroanthra[2,1,9-def:6,5,10-d′e′f′]diisoquinolin-2(1H)-yl)propyl)butanamide] | 169 to 171 °C |  |  |  | 70 nm | 27500 M⁻¹ cm⁻¹ | 460 nm | 530 nm | 1410 nM |  | 15000 nM | 7990 nM |  |  |  | 
4 | CCN(CC)c1ccc2c(-c3ccccc3C(=O)NCCC(=O)NCCC(=O)NCCCOCCOCCOCCCNC(=O)CCCOc3cc(I)c(OC)cc3CC(C)N)c3ccc(=[N+](CC)CC)cc-3oc2c1 (stereo not drawn) [12i, N-(9-(2-((26-(2-(2-aminopropyl)-5-iodo-4-methoxyphenoxy)-3,7,23-trioxo-12,15,18-trioxa-4,8,22-triazahexacosyl)carbamoyl)phenyl)-6-(diethylamino)-3H-xanthen-3-ylidene)-N-ethylethanaminium] | 151 to 153 °C | 1220 nM | 225 nM | 994 nM | 25 nm | 78828 M⁻¹ cm⁻¹ | 555 nm | 580 nm | 262 nM |  |  |  | no statistically significant specific labelling | certain specific labelling | clearly superior | 
5 | COc1cc(CC(C)N)c(OC)cc1I (stereo not drawn) [DOI, 1-(2,5-Dimethoxy-4-iodophenyl)-propan-2-amine, reference compound] |  |  | 11.7 nM | 18.2 nM |  |  |  |  | 48.2 nM |  |  |  |  |  |  | ≈ 15 pM
